From patent publication US12083138B2, “Methods to reduce complications of intra-articular steroid” (TAIWAN LIPOSOME CO., LTD., priority 2018, dated 2024)

Legend:
[1] = tested on: cartilage; test: Cartilage toluidine blue staining, comparison of TLC599 with TA and ER-TA, Study #75903-18-214
Method: Proteoglycan loss was evaluated by cationic dyes, toluidine blue, that staining proteoglycans.

[2] = tested on: chondrocyte; settings: compared among hydrocortisone, triamcinolone and dexamethasone; cited from earlier work

Row | SMILES | proteoglycan loss (toluidine blue staining) ([1]; high dose 18.75 mg/knee, single IA injection, vs saline (FIG. 3)) | proteoglycan loss in cartilage ([1]; single dose (FIG. 3)) | effectiveness to induce chondrocyte apoptosis [2]
1 | CC1(C)O[C@@H]2C[C@H]3[C@@H]4CCC5=CC(=O)C=C[C@]5(C)[C@@]4(F)[C@@H](O)C[C@]3(C)[C@]2(C(=O)CO)O1 [TA, triamcinolone acetonide] | significantly proteoglycan loss compared to saline | moderate proteoglycan loss | 
2 | C[C@@H]1C[C@H]2[C@@H]3CCC4=CC(=O)C=C[C@]4(C)[C@@]3(F)[C@@H](O)C[C@]2(C)[C@@]1(O)C(=O)CO [dexamethasone] |  |  | most effective
